Results on five compounds are retold here after patent US7361643B2, “Methods for inhibiting angiogenesis” (University of Puerto Rico, priority 2000, dated 2008).

One test concerns protein N-glycosylation. The settings on record: pre-treatment of cells with β-antagonist; cited from earlier work.
Test [1] concerns bovine adrenal medullary microvascular endothelial cells. Nature of the test: Cell cycle and apoptosis by flow cytometry (propidium iodide). Type of test: cell-based. The protocol: Regarding flow cytometry, assessment of the cell cycle was determined by propidium iodide staining of fixed cell nuclei followed by flow cytometry in a FacSort (Beckton Dickinson) according to the method of Krishan (1975) as modified by Vindelov (1977), as discussed in KRISHAN, “Rapid Flow Cytofluorometric Analysis of Mammalian Cell Cycle by Propidium Iodide Staining”, J. Cell Biol., 66:188-193 (1975); and VINDELOV, “Flow Cytometric Analysis of Nuclear DNA in Cells from Solid Tumors and Cell Suspensions”, Virchows Arch (B), 24:227-231(1977), the disclosures of which are herein incorporated by reference in their entireties. Briefly, cells were trypsinized, and pelleted by centrifugation at 900 rpm in a bench top centrifuge (Sorvall T6000B). After washing twice with PBS the cell pellet was resuspended in propidium iodide-buffer (PI-buffer; 10 mM Tris-HCl, pH 8.0 containing 10 mM NaCl, 0.7 μM PI, 700 units/liter RNase, and 0.1% (v/v) NP-40), kept in ice for 30 minutes and then fixed with 2% (v/v) paraformaldehyde. After FacSort calibration, 3000 events were counted per sample. Acquisition and analysis of data were carried out by using Cell Quest flow cytometry software (Macintosh-based). Gates: M1=G0/G1, M2=S, M3=G2+M, M4=apoptosis.
Proliferation and Differentiation of Capillary Endothelial Cells: 2.0×10^4 cells were seeded per well in 24-well clusters in 1 ml complete EMEM containing 10% (v/v) serum and allowed to grow for 72 hours. Media were removed and the cells were washed twice with phosphate-buffer saline, pH 7.4 (PBS). Cells were synchronized by incubating for 48 hours in 2 mM hydroxyurea in serum-free EMEM with glutamine (2 mM) and one-third of penicillin-streptomycin used in a regular culture condition, followed by incubating 24 hours in serum-free EMEM, as discussed in CAO et al., “Modified Method of Mammalian Cell Synchronization Improves Yield and Degree of Synchronization”, Exp. Cell Res., 193:405-410 (1991), the disclosure of which is herein incorporated by reference in its entirety. Cells were routinely monitored by light microscopy. For proliferation assay, cells were trypsinized and counted in a hemacytometer. Viability of cells was determined by trypan blue (0.4% (v/v)) exclusion. Statistical analysis was carried out by StatView II software (Macintosh). Quantitation of cellular differentiation was carried out by observing under a Nikon AlphaShot inverted microscope, and counting the number of capillary lumen-like structures in five randomly selected fields per sample. The results were expressed as percent of its corresponding control after normalization of cell numbers. Analysis of Cell Cycle by Flow Cytometry: Assessment of the cell cycle was determined by propidium iodide staining of fixed cell nuclei followed by flow cytometry in a FacSort (Beckton Dickinson) according to the method of Krishan (1975) as modified by Vindelov (1977), as discussed in KRISHAN, “Rapid Flow Cytometric Analysis of Mammalian Cell Cycle by Propidium Iodide Staining”, J. Cell Biol. 66:188-195 (1975); and VINDELOV, “Flow Cytometric Analysis of Nuclear DNA in Cells from Solid Tumors and Cell Suspensions”, Virchows Arch (B), 24:227-231 (1977), the disclosures of which are herein incorporated by reference in their entireties. Briefly, cells were trypsinized, and pelleted by centrifugation at 900 rpm in a bench top centrifuge (Sorvall T6000B). After washing twice with PBS the cell pellet was resuspended in propidium iodide-buffer (PI-buffer; 10 mM Tris-HCl, pH 8.0 containing 10 mM NaCl, 0.7 μM PI, 700 units/liter RNase, and 0.1% (v/v) NP-40), kept in ice for 30 minutes and then fixed with 2% (v/v) paraformaldehyde. After FacSort calibration, 3000 events were counted per sample. Acquisition and analysis of data were carried out by using Cell Quest flow cytometry software (Macintosh-based). Gates: M1 G0/G1, M2=S, M3=G2+M, M4=apoptosis.
In general terms: In flow cytometry, cells or beads pass a laser one at a time.

The test system is the same in test [2]. Kind of test: Capillary endothelial cell growth and proliferation (cell count in hemacytometer). In kind it is cell-based. Here is the method:
Cells in the amount of 2.0×10^4 were seeded per well in 24-well clusters in 1 ml complete EMEM containing 10% (v/v) serum and allowed to grow for 72 hours. Media were removed and the cells were washed twice with phosphate-buffer saline, pH 7.4 (PBS). Cells were synchronized by incubating for 48 hours in 2 mM hydroxyurea in serum-free EMEM with glutamine (2 mM) and one-third of penicillin-streptomycin used in a regular culture condition, followed by incubating 24 hours in serum-free EMEM, as discussed in CAO et al., “Modified Method of Mammalian Cell Synchronization Improves Yield and Degree of Synchronization”, Exp. Cell Res., 193:405-410 (1991), the disclosure of which is herein incorporated by reference in its entirety.
For proliferation assay, cells were trypsinized and counted in a hemacytometer. Viability of cells was determined by trypan blue (0.4% (v/v)) exclusion. Statistical analysis was carried out by StatView II software (Macintosh). Quantitation of cellular differentiation was carried out by observing under a Nikon AlphaShot inverted microscope, and counting the number of capillary lumen-like structures in five randomly selected fields per sample.
Synchronized cells, as described in Example 1, were cultured at 37° C. in complete EMEM containing fetal bovine serum (1% (v/v), 2% (v/v), or 10% (v/v), or complete EMEM with 2% (v/v) fetal bovine serum containing 1 ng/ml −100 ng/ml of bFGF/FGF-2, or containing 0.5 μg/ml to 5.0 μg/ml tunicamycin (lot number 10922120-07 from Boehringer-Mannheim, Indianapolis, Ind.). In each case, the cellular growth and proliferation was monitored by trypan blue exclusion, by counting the cell number, and by their ability to process through the cell cycle by flow cytometry.
Proliferation and Differentiation of Capillary Endothelial Cells: 2.0×10^4 cells were seeded per well in 24-well clusters in 1 ml complete EMEM containing 10% (v/v) serum and allowed to grow for 72 hours. Media were removed and the cells were washed twice with phosphate-buffer saline, pH 7.4 (PBS). […] Cells were routinely monitored by light microscopy. For proliferation assay, cells were trypsinized and counted in a hemacytometer. Viability of cells was determined by trypan blue (0.4% (v/v)) exclusion. […] Quantitation of cellular differentiation was carried out by observing under a Nikon AlphaShot inverted microscope, and counting the number of capillary lumen-like structures in five randomly selected fields per sample. The results were expressed as percent of its corresponding control after normalization of cell numbers. Analysis of Cell Cycle by Flow Cytometry: Assessment of the cell cycle was determined by propidium iodide staining of fixed cell nuclei followed by flow cytometry in a FacSort (Beckton Dickinson) according to the method of Krishan (1975) as modified by Vindelov (1977), as discussed in KRISHAN, “Rapid Flow Cytometric Analysis of Mammalian Cell Cycle by Propidium Iodide Staining”, J. Cell Biol. 66:188-195 (1975); and VINDELOV, “Flow Cytometric Analysis of Nuclear DNA in Cells from Solid Tumors and Cell Suspensions”, Virchows Arch (B), 24:227-231 (1977), the disclosures of which are herein incorporated by reference in their entireties. […]

Test [3] relates to capillary endothelial cells. The settings on record: BANERJEE et al. (1993); cited from earlier work.
The mark [4] stands for this setting: cycloheximide replacing tunicamycin (data not shown).

In the case of `Cc1ccc(OCC(O)C(C)NC(C)C)c2c1CCC2` (stereo not drawn) [ICI-118,551], in the test on protein N-glycosylation, the “protein N-glycosylation” value was “reduced protein N-glycosylation substantially”.

As to `CC(C)NCC(O)COc1ccc(CC(N)=O)cc1` (stereo not drawn) [atenolol], the “protein N-glycosylation” value in the test on protein N-glycosylation is “reduced protein N-glycosylation substantially”.

With `C[C@@H]1C[C@@H]([C@H](O)CC2CC(=O)NC(=O)C2)C(=O)[C@@H](C)C1` [cycloheximide], the induction of apoptosis result in test [1] (setting [4]) is given as “did not induce apoptosis”. The cell proliferation result in test [2] (setting [4]) was “inhibited the cell proliferation in a time- and dose-dependent manner”.

Turning to Amphomycin, in test [3], the endothelial cell proliferation result is on record as “inhibits endothelial cell proliferation in a dose-dependent manner”.

Turning to “bFGF/FGF-2: basic fibroblast growth factor”, the “time to complete the cell cycle” value in test [1] (bFGF/FGF-2 10 ng/ml-100 ng/ml (68 hours in 2% serum control)) worked out at 56 h. Also, the “shortening of the G1 phase” value in test [1] (bFGF/FGF-2 10 ng/ml-100 ng/ml versus 2% serum) came to 12 h. Besides, the endothelial cell proliferation entry in test [2] (bFGF/FGF-2 10 ng/ml-100 ng/ml in 2% serum) is listed as “stimulated the endothelial cell proliferation over the controls”. Further, the “reduction of the lag phase” value in test [2] (bFGF/FGF-2 at stimulatory concentrations) is about 24 h.
